The nature of this data set: RP, Thermo Scientific Accucore C18, 150 × 2.1 mm, 2.6 µm, 24 °C, 0.28 mL/min, estimated dead time 0.83 min; A: 90% water + 10% acetonitrile + 10 mM ammonium acetate; B: 20% water + 80% methanol + 10 mM ammonium acetate; gradient (min/%B) 0/0 2.5/0 7.5/30 12.5/30 15/40 20/100 27.5/100. The note with it: stereoisomer not certain.

As for `CC1C(c2ccccc2)OCCN1C` (stereo unspecified), the LC retention time is 8.08 min. The value for `OCc1cc(C(O)CNCCCCCCOCCCCc2ccccc2)ccc1O` (stereo unspecified) was 17 min; that for `CC(C)(C#N)c1cc(Cn2cncn2)cc(C(C)(C)C#N)c1` was 12.2 min.

With `CNCCC=C1c2ccccc2CCc2ccccc21`, the LC retention time is 15.6 min. The value for `CCCCCc1cc(O)c2c(c1)OC(C)(C)C1CCC(C(=O)O)=CC21` (stereo unspecified) was 18.9 min. The value for `CCCN(CCC)S(=O)(=O)c1ccc(C(=O)O)cc1` was 8.74 min; that for `NC(=O)N1c2ccccc2C=Cc2ccccc21` was 10.7 min. The value for `CNC(C)C(=O)c1ccccc1` (stereo unspecified) was 2.99 min. Turning to `CCCC(=O)Nc1ccc(OCC(O)CNC(C)C)c(C(C)=O)c1` (stereo unspecified), the LC retention time is 7.07 min. The value for `CCCC(C(=O)c1ccc2c(c1)OCO2)N1CCCC1` (stereo unspecified) was 8.97 min.

`CC(CCc1ccccc1)NCC(O)c1ccc(O)c(C(N)=O)c1` (stereo unspecified): the LC retention time was 9 min. The figure for `c1ccc(CN2CCNCC2)cc1` is 4.45 min. In the case of `Cc1cc(=O)n(-c2ccccc2)n1C`, the LC retention time is 5.43 min. The value for `CNC(C)CC1CCCCC1` (stereo unspecified) was 8.35 min; that for `CN1C2CCC1C(C(=O)O)C(OC(=O)c1ccccc1)C2` (stereo unspecified) was 4.81 min. The value for `CCN(CC)C(=O)c1ccc(O)c(OC)c1` was 8.07 min. For the molecule `CCC1(O)CCC2C3CCC4=CC(=O)CCC4=C3C=CC21CC` (stereo unspecified), the LC retention time was 18.8 min. For `CC(C)NCC(O)COc1ccc(COCCOC(C)C)cc1` (stereo unspecified), the LC retention time is 8.86 min. For `CCCC(Cc1ccccc1)N1CCCC1` (stereo unspecified), the LC retention time is 9.51 min. The figure for `CCC(=O)C(CC(C)N(C)C)(c1ccccc1)c1ccccc1` (stereo unspecified) is 16.5 min. The value for `CNC(C)Cc1ccccc1OC` (stereo unspecified) was 6.54 min. As for `CC(Cc1ccc(O)cc1)NCC(O)c1cc(O)cc(O)c1` (stereo unspecified), the LC retention time is 3.13 min. As for `CCC(C(=O)OCCN1CCOC(c2ccccc2)C1C)c1ccccc1` (stereo unspecified), the LC retention time is 21.2 min. The value for `CC(CN1CCOCC1)C(C(=O)N1CCCC1)(c1ccccc1)c1ccccc1` (stereo unspecified) was 19 min; that for `COc1ccc2c3c1OC1C(=O)CCC4(O)C(C2)N(C)CCC314` (stereo unspecified) was 5.11 min; that for `CC(C(=O)O)c1cccc(C(=O)c2ccccc2)c1` (stereo unspecified) was 8.05 min. Regarding `CC(C)(C)NCC(O)COc1cccc2c1CCC(=O)N2` (stereo unspecified), the LC retention time was 4.22 min. For `C1CCc2nnnn2CC1`, the LC retention time was 2.93 min. For `CCCCCC(C)N` (stereo unspecified), the LC retention time was 6.13 min. The value for `COc1cc(Cc2cnc(N)nc2N)cc(OC)c1OC` was 6.44 min; that for `CC(C)=CCN1CCC2(C)c3cc(O)ccc3CC1C2C` (stereo unspecified) was 9.19 min. On to `CS(=O)(=O)Nc1ccc([N+](=O)[O-])cc1Oc1ccccc1`, for which the LC retention time was 17.2 min. As to `CC(C(O)c1ccccc1)N(C)C` (stereo unspecified), the LC retention time is 3.27 min. The value for `COC(=O)C1C(OC(=O)c2ccccc2)CC2CCC1N2C` (stereo unspecified) was 8.59 min. Turning to `CCOC(=O)C1(c2ccccc2)CCN(C)CC1`, the LC retention time was 8.8 min. For `CC(C)(C)NCC(O)COc1nsnc1N1CCOCC1` (stereo unspecified), the LC retention time is 7.05 min. The figure for `COc1ccc(CC(C)NCC(O)c2ccc(O)c(NC=O)c2)cc1.COc1ccc(CC(C)NCC(O)c2ccc(O)c(NC=O)c2)cc1.O=C(O)C=CC(=O)O` (stereo unspecified) is 7.62 min; for `CNC(C)Cc1ccc2c(c1)OCO2` (stereo unspecified) it is 5.12 min; for `Cc1cc(C)cc(NC(=O)Cc2ccc(OC(C)(C)C(=O)O)cc2)c1` it is 9.1 min. The value for `CC(C)(C)NCC(O)COc1cccc2c1CC(O)C(O)C2` (stereo unspecified) was 4.97 min; that for `O=C1CC2OCC=C3CN4CCC56c7ccccc7N1C5C2C3CC46` (stereo unspecified) was 6.68 min.

The values above are taken from the RepoRT retention time repository (doi:10.1016/j.chroma.2015.03.063).
